Key:
[1] = biological target: T1, DDR2 (Homo sapiens, UniProt Q16832); assay: LanthaScreen Europium Kinase Binding assay, DDR2; conditions: 5 nM DDR2, 10 nM Kinase Tracer 178, 1 h at rt; Ki from IC50 by Cheng-Prusoff; read-out: Ki DDR2
T1 construct: purchased Life Technologies
T1 sequence (Q16832 22-855): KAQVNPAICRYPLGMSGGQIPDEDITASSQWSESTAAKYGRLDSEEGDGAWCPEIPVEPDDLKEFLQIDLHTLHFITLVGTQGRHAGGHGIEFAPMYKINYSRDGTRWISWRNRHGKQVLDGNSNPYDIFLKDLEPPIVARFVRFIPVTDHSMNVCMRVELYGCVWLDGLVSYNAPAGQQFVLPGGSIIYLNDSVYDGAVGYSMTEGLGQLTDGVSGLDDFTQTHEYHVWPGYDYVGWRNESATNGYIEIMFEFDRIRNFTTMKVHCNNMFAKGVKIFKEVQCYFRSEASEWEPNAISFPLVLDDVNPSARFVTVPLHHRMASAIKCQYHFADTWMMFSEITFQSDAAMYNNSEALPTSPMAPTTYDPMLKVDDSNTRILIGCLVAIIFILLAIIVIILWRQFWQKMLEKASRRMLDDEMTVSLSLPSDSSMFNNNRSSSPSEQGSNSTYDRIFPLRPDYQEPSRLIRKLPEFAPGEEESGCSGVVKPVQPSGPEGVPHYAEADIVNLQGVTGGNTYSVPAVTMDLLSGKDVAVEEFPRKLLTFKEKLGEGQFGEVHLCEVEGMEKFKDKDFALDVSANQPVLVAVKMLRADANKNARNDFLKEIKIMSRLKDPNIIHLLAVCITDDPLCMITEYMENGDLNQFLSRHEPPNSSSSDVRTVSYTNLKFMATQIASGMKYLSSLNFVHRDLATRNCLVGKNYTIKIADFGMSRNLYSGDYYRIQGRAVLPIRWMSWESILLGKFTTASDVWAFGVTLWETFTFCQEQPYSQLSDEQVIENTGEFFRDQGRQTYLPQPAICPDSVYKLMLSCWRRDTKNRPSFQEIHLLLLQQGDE
Procedure: (§1) DDR1 and DDR2 binding assays were performed using Life Technologies LanthaScreen™ Europium Kinase Binding assay. […] IC50 values were determined in GraphPad Prism 7.0 software, using 4 parameter model: log (inhibitor) vs. response. IC50 values were converted in Ki using the Cheng-Prusoff equation (Ki-IC50/(1+ [Tracer]/Kd).

[2] = biological target: T2, DDR1 (Homo sapiens, UniProt Q08345); assay: LanthaScreen Europium Kinase Binding assay, DDR1; conditions: 5 nM DDR1, 20 nM Kinase Tracer 178, 1 h at rt; Ki from IC50 by Cheng-Prusoff; read-out: Ki DDR1
T2 construct: purchased Carna Biosciences
T2 sequence (Q08345 19-913): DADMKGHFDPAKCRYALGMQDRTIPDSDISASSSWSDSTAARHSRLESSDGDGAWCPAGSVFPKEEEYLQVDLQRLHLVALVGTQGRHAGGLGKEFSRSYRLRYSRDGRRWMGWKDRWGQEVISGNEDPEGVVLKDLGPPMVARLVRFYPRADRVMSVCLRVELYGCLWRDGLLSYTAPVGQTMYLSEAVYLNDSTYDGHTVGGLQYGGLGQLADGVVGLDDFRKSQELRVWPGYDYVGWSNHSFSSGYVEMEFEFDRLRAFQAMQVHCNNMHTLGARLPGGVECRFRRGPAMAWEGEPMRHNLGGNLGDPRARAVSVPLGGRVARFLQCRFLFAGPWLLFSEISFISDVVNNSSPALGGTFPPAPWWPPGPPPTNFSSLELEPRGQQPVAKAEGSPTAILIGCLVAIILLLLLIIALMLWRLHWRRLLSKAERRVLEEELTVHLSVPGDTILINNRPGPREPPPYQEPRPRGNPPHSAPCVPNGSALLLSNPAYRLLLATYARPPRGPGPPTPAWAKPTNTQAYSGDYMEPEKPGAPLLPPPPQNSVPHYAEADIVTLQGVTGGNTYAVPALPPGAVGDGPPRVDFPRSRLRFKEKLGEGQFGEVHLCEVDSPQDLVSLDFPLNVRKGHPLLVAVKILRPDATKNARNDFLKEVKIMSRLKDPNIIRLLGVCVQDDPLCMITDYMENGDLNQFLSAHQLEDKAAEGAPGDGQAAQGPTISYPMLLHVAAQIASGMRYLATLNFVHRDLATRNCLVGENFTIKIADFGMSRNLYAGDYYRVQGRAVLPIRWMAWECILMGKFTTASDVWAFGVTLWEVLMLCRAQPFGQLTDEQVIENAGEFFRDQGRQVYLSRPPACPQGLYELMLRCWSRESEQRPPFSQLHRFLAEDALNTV
Procedure: as §1

| Structure (SMILES) | Ki [1] | Ki [2] |
| --- | --- | --- |
| CN(C(=O)Nc1cc(OC(F)(F)F)ccn1)C1CC2(C1)CN(c1cnc3[nH]ncc3c1)C2 [Example 219, 1-(2-(1H-pyrazolo[3,4-b]pyridin-5-yl)-2-azaspiro[3.3]heptan-6-yl)-1-methyl-3-(4-(trifluoromethoxy)pyridin-2-yl)urea] | 5 to 25 nM | < 5 nM |
| Cc1c(F)cc(C(F)(F)F)cc1NC(=O)N(C)C1CC2(C1)CN(C(=O)c1cnn3ccn(C)c13)C2 [Example 283, 3-(3-fluoro-2-methyl-5-(trifluoromethyl)phenyl)-1-methyl-1-(2-(1-methyl-1H-imidazo[1,2-b]pyrazole-7-carbonyl)-2-azaspiro[3.3]heptan-6-yl)urea] | 5 to 25 nM | < 5 nM |
| Cn1ccn2ncc(C(=O)N3CC4(CC(OC(=O)Nc5cncc(OC(F)(F)F)c5)C4)C3)c12 [Example 299, 2-(1-methyl-1H-imidazo[1,2-b]pyrazole-7-carbonyl)-2-azaspiro[3.3]heptan-6-yl(5-(trifluoromethoxy)pyridin-3-yl)carbamate] | < 5 nM | < 5 nM |
| Cn1ccn2ncc(C(=O)N3CC4(CC(NC(=O)Nc5cccc(C(F)(F)C(F)(F)F)c5)C4)C3)c12 [Example 127, 1-(2-(1-methyl-1H-imidazo[1,2-b]pyrazole-7-carbonyl)-2-azaspiro[3.3]heptan-6-yl)-3-(3-(perfluoroethyl)phenyl)urea] | < 5 nM | < 5 nM |
| COc1ccc(CC(F)(F)F)cc1NC(=O)NC1CC2(C1)CN(C(=O)c1cnn3ccn(C)c13)C2 [Example 152, 1-(2-methoxy-5-(2,2,2-trifluoroethyl)phenyl)-3-(2-(1-methyl-1H-imidazo[1,2-b]pyrazole-7-carbonyl)-2-azaspiro[3.3]heptan-6-yl)urea] | 5 to 25 nM | < 5 nM |
| COc1ccc(OC(F)(F)F)cc1NC(=O)NC1CC2(C1)CN(C(=O)c1cnc3cccnn13)C2 [Example 54, 1-(2-(imidazo[1,2-b]pyridazine-3-carbonyl)-2-azaspiro[3.3]heptan-6-yl)-3-(2-methoxy-5-(trifluoromethoxy)phenyl)urea] | 5 to 25 nM | < 5 nM |
| O=C(Nc1cccc(C(F)(F)F)c1)NC1CC2(C1)CN(c1cnc3[nH]ncc3c1)C2 [Example 138, 1-(2-(1H-pyrazolo[3,4-b]pyridine-5-yl)-2-azaspiro[3.3]heptan-6-yl)-3-(3-(trifluoromethyl)phenyl)urea] | < 5 nM | < 5 nM |
| O=C(Nc1cccc(C(F)(F)F)c1)NC1CC2(C1)CN(C(=O)c1ccnc3[nH]ncc13)C2 [Example 93, 1-(2-(1H-pyrazolo[3,4-b]pyridine-4-carbonyl)-2-azaspiro[3.3]heptan-6-yl)-3-(3-(trifluoromethyl)phenyl)urea] | < 5 nM | < 5 nM |
| COc1ccn2ncc(C(=O)N3CC4(CC(N(C)C(=O)Nc5cncc(C(F)(F)F)c5)C4)C3)c2c1 [Example 251, 1-(2-(5-methoxypyrazolo[1,5-a]pyridine-3-carbonyl)-2-azaspiro[3.3]heptan-6-yl)-1-methyl-3-(5-(trifluoromethyl)pyridin-3-yl)urea] | 5 to 25 nM | < 5 nM |
| O=C(Nc1cncc(C(F)(F)F)c1)NC1CC2(C1)CN(c1cnc3[nH]ncc3c1)C2 [Example 304, 1-(2-(1H-pyrazolo[3,4-b]pyridin-5-yl)-2-azaspiro[3.3]heptan-6-yl)-3-(5-(trifluoromethyl)pyridin-3-yl)urea] | 5 to 25 nM | < 5 nM |
| CN(C(=O)Nc1cncc(C(F)(F)F)c1)C1CC2(C1)CN(C(=O)c1cnn3cc(N4CCCC4)ccc13)C2 [Example 240, 1-methyl-1-(2-(6-(pyrrolidin-1-yl)pyrazolo[1,5-a]pyridine-3-carbonyl)-2-azaspiro[3.3]heptan-6-yl)-3-(5-(trifluoromethyl)pyridin-3-yl)urea] | 5 to 25 nM | 5 to 25 nM |
| O=C(Nc1cc(OC(F)(F)F)ccn1)NC1CC2(C1)CN(C(=O)c1ncnc3ccsc13)C2 [Example 101, 1-(2-(thieno[3,2-d]pyrimidine-4-carbonyl)-2-azaspiro[3.3]heptan-6-yl)-3-(4-(trifluoromethoxy)pyridin-2-yl)urea] | < 5 nM | < 5 nM |
| Cn1cc(N2CCOCC2)n2ncc(C(=O)N3CC4(CC(NC(=O)Nc5cccc(C(F)(F)F)c5)C4)C3)c12 [Example 192, 1-(2-(1-methyl-3-morpholino-1H-imidazo[1,2-b]pyrazole-7-carbonyl)-2-azaspiro[3.3]heptan-6-yl)-3-(3-(trifluoromethyl)phenyl)urea] | 25 to 100 nM | 25 to 100 nM |
| Cn1ccn2ncc(C(=O)N3CC4(CC(NC(=O)Nc5cc(OC(F)(F)F)ccc5Cl)C4)C3)c12 [Example 92, 1-(2-chloro-5-(trifluoromethoxy)phenyl)-3-(2-(1-methyl-1H-imidazo[1,2-b]pyrazole-7-carbonyl)-2-azaspiro[3.3]heptan-6-yl)urea] | < 5 nM | < 5 nM |
| CN(C(=O)Nc1cc(Cl)cc(C(F)(F)F)c1)C1CC2(C1)CN(C(=O)c1cnn3ccn(C)c13)C2 [Example 224, 3-(3-chloro-5-(trifluoromethyl)phenyl)-1-methyl-1-(2-(1-methyl-1H-imidazo[1,2-b]pyrazole-7-carbonyl)-2-azaspiro[3.3]heptan-6-yl)urea] | 5 to 25 nM | < 5 nM |
| O=C(CC1CC2(C1)CN(C(=O)c1ccnc3ccsc13)C2)Nc1cccc(C(F)(F)F)c1 [Example 140, 2-(2-(thieno[3,2-b]pyridine-7-carbonyl)-2-azaspiro[3.3]heptan-6-yl)-N-(3-(trifluoromethyl)phenyl)acetamide] | < 5 nM | < 5 nM |
| CN(C(=O)Nc1cncc(C(F)(F)F)c1)C1CC2(C1)CN(C(=O)c1cnn3ccc(N4CCCC4)cc13)C2 [Example 214, 1-methyl-1-(2-(5-(pyrrolidin-1-yl)pyrazolo[1,5-a]pyridine-3-carbonyl)-2-azaspiro[3.3]heptan-6-yl)-3-(5-(trifluoromethyl)pyridin-3-yl)urea] | 5 to 25 nM | < 5 nM |
| COc1ccc(OC(F)(F)F)cc1NC(=O)OC1CC2(C1)CN(C(=O)c1cnn3ccn(C)c13)C2 [Example 144, 2-(1-methyl-1H-imidazo[1,2-b]pyrazole-7-carbonyl)-2-azaspiro[3.3]heptan-6-yl(2-methoxy-5-(trifluoromethoxy)phenyl)carba-mate] | 5 to 25 nM | < 5 nM |
| O=C(Nc1cccc(C(F)(F)F)c1)NC1CC2(C1)CN(C(=O)c1cnn3ccn(C4COC4)c13)C2 [Example 167, 1-(2-(1-(oxetan-3-yl)-1H-imidazo[1,2-b]pyrazole-7-carbonyl)-2-azaspiro[3.3]heptan-6-yl)-3-(3-(trifluoromethyl)phenyl)urea] | 5 to 25 nM | < 5 nM |
| CCc1ccc(C(F)(F)F)cc1NC(=O)NC1CC2(C1)CN(C(=O)c1cnn3ccn(C)c13)C2 [Example 282, 1-(2-ethyl-5-(trifluoromethyl)phenyl)-3-(2-(1-methyl-1H-imidazo[1,2-b]pyrazole-7-carbonyl)-2-azaspiro[3.3]heptan-6-yl)urea] | < 5 nM | < 5 nM |
| O=C(CC1CC2(C1)CN(C(=O)c1cnn3ccsc13)C2)Nc1cccc(C(F)(F)F)c1 [Example 27, 2-(2-(pyrazolo[5,1-b]thiazole-7-carbonyl)-2-azaspiro[3.3]heptan-6-yl)-N-(3-(trifluoromethyl)phenyl)acetamide] | < 5 nM | < 5 nM |
| O=C(Nc1cccc(C(F)(F)F)c1)NC1CC2(C1)CN(C(=O)c1ccncc1)C2 [Example 44, 1-(2-isonicotinoyl-2-azaspiro[3.3]heptan-6-yl)-3-(3-(trifluoromethyl)phenyl)urea] | 25 to 100 nM | 25 to 100 nM |
| CN(C(=O)Nc1cccc(C(F)(F)F)c1)C1CC2(C1)CN(C(=O)c1ncnc3[nH]ccc13)C2 [Example 247, 1-(2-(7H-pyrrolo[2,3-d]pyrimidine-4-carbonyl)-2-azaspiro[3.3]heptan-6-yl)-1-methyl-3-(3-(trifluoromethyl)phenyl)urea] | 5 to 25 nM | < 5 nM |

Source: patent US20260285855A1, “HETEROARYL DERIVATIVES AS DDRS INHIBITORS” (CHIESI FARMACEUTICI S.P.A., priority 2023, published 2026)
